# Where “and” joins values, the source holds several entries; their conditions need not be identical. Identical values can stand only once.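 Where inhibition never reached the appropriate level, the endpoint shown equals the highest concentration tested. Otherwise, values were interpolated linearly from a five-concentration, 48-hour dose response in 96-well plates. At the GI50, growth is halved. Definition used: TGI = concentration required for complete inhibition of growth.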
# Columns and labels:
# Assay in all cases: inhibition of tumour cell growth, NCI panel, 48 h
# SF-295 CNS = tested on: SF-295 CNS
# HCC-2998 colon = tested on: HCC-2998 colon
# NCI-H460 lung = tested on: NCI-H460 lung
# K-562 leukemia = tested on: K-562 leukemia
# MDA-MB-435 = tested on: MDA-MB-435
# MOLT-4 leukemia = tested on: MOLT-4 leukemia
# KM12 colon = tested on: KM12 colon
# SR leukemia = tested on: SR leukemia
# EKVX NSCLC = tested on: EKVX NSCLC
# NCI-H522 lung = tested on: NCI-H522 lung
Compound,GI50 (SF-295 CNS),TGI (SF-295 CNS),GI50 (HCC-2998 colon),TGI (HCC-2998 colon),GI50 (NCI-H460 lung),TGI (NCI-H460 lung),GI50 (K-562 leukemia) [µM],TGI (K-562 leukemia) [µM],GI50 (MDA-MB-435),TGI (MDA-MB-435),GI50 (MOLT-4 leukemia) [µM],TGI (MOLT-4 leukemia) [µM],GI50 (KM12 colon),TGI (KM12 colon),GI50 (SR leukemia) [µM],TGI (SR leukemia) [µM],GI50 (EKVX NSCLC),TGI (EKVX NSCLC) [µM],GI50 (NCI-H522 lung),TGI (NCI-H522 lung)
O=P(O)(O)OCC1OC(n2cnc3c(NCc4ccco4)ncnc32)C(O)C1O (stereo not drawn),2.53 µM,> 35.1 µM,3.61 µM,> 30.2 µM,3.04 µM,21.4 µM,3.01,> 57.5,2.36 µM,> 25.7 µM,0.339,1.9,4.44 µM,> 42.6 µM,1.11,3.93,2.82 µM,> 41,1.14 µM,19 µM
C=C(C)[C@@H]1CC[C@]2(COCCCNCCCN)CC[C@]3(C)[C@H](CC[C@@H]4[C@@]5(C)CC[C@H](OCCCN)C(C)(C)[C@@H]5CC[C@]43C)[C@@H]12,0.868 µM,1.59 µM,0.96 µM,1.81 µM,0.94 µM,1.75 µM,0.879,1.82,0.833 µM,1.53 µM,1.05,2.58,0.928 µM,1.73 µM,0.577,1.94,0.812 µM,1.61,0.868 µM,1.72 µM
O=c1cc(-c2ccccc2)oc2ccc(OC/C(=N/O)c3ccc(F)cc3)cc12,1.79 µM,8.12 µM,4.41 µM,12.5 µM,2.54 µM,12.1 µM,2.61,> 50,0.913 µM,1.98 µM,3.54,> 50,1.6 µM,6.01 µM,2.09,> 50,1.97 µM,15.8,4.68 µM,> 50 µM
O=C1CSC(c2ccc(-c3nc4ccccc4[nH]3)cc2)=N1,29.5 µM,> 50 µM,16.3 µM,> 50 µM,3.27 µM,> 50 µM,5.64,17.5,32.5 µM,> 50 µM,,,22.8 µM,> 50 µM,5.7,> 50,> 50 µM,> 50,37.3 µM,> 50 µM
Nc1ncnc2c1c(-c1ccc(Oc3ccccc3)cc1)nn2C[C@H]1SSC[C@@H]1O,1.95 µM,9.9 µM,3.3 µM,27.6 µM,0.0445 µM,0.206 µM,0.342,4.08,0.162 µM,0.324 µM,0.0825,0.361,0.242 µM,16.4 µM,0.165,0.627,0.365 µM,12.1,3.85 µM,14 µM
Oc1[nH]c(N=C2N=c3ccccc3=N2)c2ccccc12,3.64 µM,26 µM,17.4 µM,> 100 µM,3.01 µM,21 µM,9.86,> 100,12.4 µM,69.4 µM,3.28,29.5,11.5 µM,42.9 µM,5.46,41.6,4.22 µM,52.2,11.2 µM,41.6 µM
O=C1Nc2ccccc2/C1=C\c1cccc(/C=C2/C(=O)Nc3ccccc32)n1,0.499 µM,2.24 µM,0.615 µM,1.77 µM,0.669 µM,1.85 µM,0.291,> 37.9,0.355 µM,1.81 µM,0.509,,0.282 µM,1.02 µM,0.231,4.88,0.692 µM,8.74,0.208 µM,0.705 µM
CN(C)c1ccc(C(=N)c2ccc(N(C)C)cc2)cc1,2.01 µM and 3.4 µM,11.9 µM and 21.9 µM,6.39 µM and 7.12 µM,33.6 µM and 32.6 µM,3.01 µM and 3.54 µM,12.6 µM and 20 µM,0.553,64.9,0.375 µM and 0.382 µM,3.19 µM and 9.02 µM,3.66,26,1.58 µM and 1.65 µM,16.2 µM and 21.5 µM,0.736,5.3,5.33 µM and 5.17 µM,> 100,0.503 µM and 1.16 µM,5.01 µM and 9.45 µM
CC(CN1CC(=O)NC(=O)C1)N1CC(=O)NC(=O)C1 (stereo not drawn),,> 750 µM,,> 750 µM,,> 622 µM,,> 750,,> 750 µM,,> 750,,> 729 µM,,> 750,,> 750,,> 724 µM
CN(C)C(=S)/N=c1\ssc(=S)n1Cc1cccs1,,21.8 µM,,> 100 µM,,> 89.7 µM,,> 55.8,,2.71 µM,,> 100,,> 100 µM,,> 100,,> 94.6,,9.6 µM
CCOc1cc(C(=O)O)c2c(ccc3ccc(OC)c(OC)c32)c1OC,,> 100 µM,,> 100 µM,,> 100 µM,,> 100,,> 100 µM,,> 100,,> 100 µM,,> 100,,> 100,,> 100 µM
COc1cc(OC)cc(-c2nc3sccn3c2/C=N/N=C(N)N)c1,8.94 µM,17.7 µM,7.55 µM,14.6 µM,13.3 µM,42.9 µM,9.7,19,8.71 µM,16.1 µM,10.9,18.6,3.13 µM,10.3 µM,8.64,16.1,8.2 µM,15.9,15.4 µM,> 50 µM
c1cc(CN2CCCNCCNCCCNCC2)ccc1CN1CCCNCCNCCCNCC1,> 100 µM,> 100 µM,> 100 µM,> 100 µM,> 100 µM,> 100 µM,> 100,> 100,> 100 µM,> 100 µM,> 100,> 100,> 100 µM,> 100 µM,> 100,> 100,> 100 µM,> 100,> 100 µM,> 100 µM
c1ccc2cc(Cn3cc[n+](Cc4ccc5ccccc5c4)c3)ccc2c1,3.65 µM,19.6 µM,1.05 µM,4.38 µM,1.27 µM,10.4 µM,1.02,14.5,0.543 µM,2.29 µM,1.24,8.38,1.15 µM,2.62 µM,1.03,3.42,2.51 µM,15.5,0.393 µM,3.11 µM
O=C1/C(=C/c2ccc(F)c(F)c2)CN(C(=O)C(Cl)Cl)C/C1=C\c1ccc(F)c(F)c1,0.0454 µM,0.21 µM,0.0934 µM,0.235 µM,0.134 µM,0.444 µM,0.0235,> 100,0.142 µM,0.324 µM,0.0491,> 100,0.0497 µM,0.2 µM,0.0128,> 100,0.188 µM,0.506,0.166 µM,0.503 µM
Nc1ncn(C2OC(COP(=O)(O)O)C(O)C2O)c(=O)n1 (stereo not drawn),,> 100 µM,,> 100 µM,,> 100 µM,,> 100,,> 73.6 µM,,> 59.2,,> 100 µM,,> 100,,> 79,,> 100 µM
COC1(OC)C2(Cl)C(Cl)=C(Cl)C1(Cl)C1c3ccc(C(C)=O)c4cccc(c34)C12 (stereo not drawn),,> 100 µM,,52.7 µM,,> 80.5 µM,,> 100,,43.5 µM,,> 77.6,,> 100 µM,,50.2,,> 100,,> 70.2 µM
O=C(O)C(Br)C(Br)C(=O)O (stereo not drawn),,> 100 µM,,> 100 µM,,> 100 µM,,> 100,,> 100 µM,,,,> 100 µM,,> 100,,> 100,,> 100 µM
O=C1NC(=O)[C@@]2(CC[C@@H](O)C2)c2ccncc21,,,,> 100 µM,,> 100 µM,,> 100,,> 100 µM,,> 100,,> 100 µM,,> 100,,> 100,,> 100 µM
COc1cc(OC)c(/C=C/C(=O)c2ccc(Nc3ncnc4ccccc34)cc2)c(OC)c1,0.353 µM,1.92 µM,1.94 µM,14.2 µM,0.394 µM,2.01 µM,,,0.13 µM,0.522 µM,0.898,> 100,0.51 µM,> 43.9 µM,0.142,1.1,1.69 µM,8.99,0.296 µM,1.44 µM
CCC#CC[C@H](O)C/C=C1/C(=O)C=C[C@@H]1C/C=C\CCCC(=O)OC,1.28 µM,3.15 µM,1.07 µM,1.89 µM,1.31 µM,3.55 µM,1.13,50,1.5 µM,5.92 µM,0.78,7.17,,,0.278,38.2,1.76 µM,7.73,0.673 µM,1.68 µM
CCN(CC)CCCOc1ccc2ncnc(Nc3ccc(Oc4cccc(C(F)(F)F)c4)c(Cl)c3)c2c1,1.73 µM,3.17 µM,1.58 µM,3.09 µM,1.78 µM,3.33 µM,1.21,8.73,1.65 µM,3.22 µM,1.88,4.49,1.77 µM,3.24 µM,1.41,3.76,1.26 µM,2.85,,
O=C(O)C1CCN(Cc2oc(CO)cc(=O)c2O)C1 (stereo not drawn),,> 100 µM,,,,> 100 µM,,> 100,,> 100 µM,,> 100,,> 100 µM,,> 100,,> 100,,> 100 µM
O=C1OCC(c2ccc(O)cc2)=C1c1cc(O)c(O)c(O)c1,26.4 µM,50.4 µM,,,> 100 µM,> 100 µM,82.2,> 100,26.4 µM,53.8 µM,> 100,> 100,89.3 µM,> 100 µM,20.7,> 100,> 100 µM,> 100,> 100 µM,> 100 µM
Cc1cn(CCC(N)C(=O)O)c(=O)[nH]c1=O (stereo not drawn),,> 100 µM,,,,> 100 µM,,> 100,,> 100 µM,,> 100,,> 100 µM,,> 100,,> 100,,> 100 µM
CC(=Nc1ccccc1)C1=C(O)C(Cc2cccc(F)c2)NC1=O (stereo not drawn),0.0312 µM,0.184 µM,0.144 µM,3.1 µM,0.0403 µM,> 100 µM,0.0412,> 100,0.018 µM,0.056 µM,0.158,> 100,0.0457 µM,> 100 µM,0.0239,> 72.8,,,0.0286 µM,0.182 µM
COC12C=C/C(=C(/C(=O)OCCSc3ccnn3C)C(=O)CCCCCCCCC3(OC)C=C/C(=C(/C(=O)OCCSc4ccnn4C)C(=O)CCCCCCCC1)O3)O2,0.948 µM,2.93 µM,0.584 µM,1.11 µM,1.07 µM,3.76 µM,1.05,18,0.685 µM,1.57 µM,,,0.813 µM,2.1 µM,0.886,> 32.5,1.15 µM,12.1,0.648 µM,1.62 µM
COc1ccc(-c2nsc3c2NC(=O)CC3c2ccc3c(c2)OCCO3)cc1 (stereo not drawn),0.434 µM,> 33.2 µM,1.38 µM,19.5 µM,0.396 µM,> 46 µM,0.367,> 100,0.173 µM,0.438 µM,0.622,> 100,0.521 µM,> 100 µM,0.301,> 100,,,0.551 µM,> 100 µM
CCn1c(-c2c(Cl)cc(O)cc2Cl)cc2c(Cl)cc(O)cc21,,19.8 µM,,,,18.4 µM,,> 100,,13 µM,,> 100,,61 µM,,> 100,,58.5,,6.68 µM

# Reference: PubChem BioAssay (NCI)
